Measurements: US5474988A, “5-phenylpyrrolo-1,4-benzoxazine and 5-phenylpyrrolo-1,4-benzothiazine compounds, process and intermediates for their production and pharmaceutical compositions containing them” (Kali-Chemie Pharma GmbH, priority 1993, dated 1995)

Tests used:
[1] = test system: P.A.F.-induced aggregation of blood platelets; assay: anti-P.A.F. action in vitro (P.A.F.-induced platelet aggregation); assay type: cell-based; settings: Oryctolagus cuniculus, 10^-5 mole/liter, read-out: Anti-P.A.F. activity in vitro, % inhibition of the P.A.F.-induced aggregation of blood platelets from rabbit blood
From the text: 3. Determination of the anti-P.A.F. action in vitro.
P.A.F. (=Platelet Activating Factor=Platelet Aggregation Factor) is a phospholipid mediator which has a multiplicity of actions. The activation of blood platelet aggregation results in the induction of long-lasting bronchoconstrictions and hyperreactivity of the respiratory passages.
In this test, the effect of the test substances on platelet aggregation induced by addition of P.A.F. in a platelet suspension obtained from rabbit blood was investigated according to the method described by Mikashima et al. (Jap. J. Pharmacol. 44 (1987) 387-391).
A suspension of platelets obtained from rabbit blood was used which contains 4×10^9 platelets/ml in a modified Tyrode buffer solution (=Tyrode solution with the addition of 1.3 mM/l of CaCl2 and 2.5 g/l of gelatine) adjusted to pH 7.4. Tyrode solution is an aqueous solution containing, per liter, 136.9 mmole of NaCl, 2.68 mmole of KCl, 2.31 mmole of CaCl2, 1.0 mmole of MgCl2, 11.9 mmole of NaHCO3, 1.45 mmole of NaH2 PO4 and 5.55 mmole of glucose. The platelets were concentrated from 10 ml blood samples of three rabbits (New Zealand hybrids, body weight 3-4 kg) in each case. To accomplish this, the blood samples were treated with ethylenediaminetetraacetic acid and washed according to the method of Artley et al. (Brit. J. Haematol. 19 (1970), 7-17). A platelet-rich plasma was first separated by centrifugation (20 minutes at 400×g). The platelets were separated from the plasma by repeated centrifugation for 15 minutes at 1400×g.After the centrifugation, the blood platelets remaining in the sediment were resuspended in a Tyrode buffer solution (but without calcium). 0.4 mmole of lysine acetylsalicylate was then added, and the blood platelets were sedimented again after 15 minutes. The sediment was resuspended in the aforementioned modified Tyrode buffer solution, and the number of platelets in the suspension obtained was adjusted to the desired content.
A 40×10^-9 molar P.A.F. solution was employed as a reagent. This solution was prepared from a 1.8×10^-3 molar stock solution in chloroform. To do this, a 10 μl sample of the stock solution was evaporated to dryness and dissolved again in 180 μl of the modified Tyrode buffer solution, to which 0.25% of lipid-free bovine serum albumin had been added. 10^-5 molar working solutions were then prepared from this and stored frozen. Samples of these solutions were appropriately diluted for tests.
In order to carry out the test, 50 μl of the blood platelet suspension and 10 μl of a 40×10^-5 molar solution of the compound to be investigated were added to […] of the modified Tyrode buffer solution with stirring (1000 rpm) in an aggregation tube provided with a small magnetic stirrer. This corresponded to a final test substance concentration of 10^-5 mole/l. After a preincubation time of 90 seconds, 10 μl of the P.A.F. preparation were added. For 4-5 minutes, the aggregation occurring in the aggregation tube was measured by means of a computerized aggregometer.
The aggregation occurring in the test tubes containing only the platelet suspension is rated as 0%. The aggregation occurring in the test tubes containing platelet suspension and P.A.F. preparation, in which a P.A.F.-induced increase in platelet aggregation takes place, is rated as 100%. The aggregation still occurring after addition of the test substances is measured, and from this the inhibition of the P.A.F.-inducedincrease in aggregation which takes place is calculated in %.

5-lipoxygenase = molecular target: T1, 5-lipoxygenase (Cavia porcellus, UniProt A0A286X958); assay: inhibitory activity on free 5-lipoxygenase concentrated from peritoneal PMNs of the guinea-pig (5-HETE formation); assay type: biochemical; settings: 10^-5 mole/liter; guinea-pig 5-LO, 37° C.; read-out: In vitro % inhibitory activity on 5-HETE formation caused by free 5-LO
T1 construct: The 5-LO was concentrated in a known manner from PMNs of male Dunkin-Hartley guinea-pigs; endogenous in cells; host or cells: peritoneal PMNs of male Dunkin-Hartley guinea-pigs, homogenized; 10,000 x g supernatant used as enzyme solution
T1 sequence (A0A286X958 1-674): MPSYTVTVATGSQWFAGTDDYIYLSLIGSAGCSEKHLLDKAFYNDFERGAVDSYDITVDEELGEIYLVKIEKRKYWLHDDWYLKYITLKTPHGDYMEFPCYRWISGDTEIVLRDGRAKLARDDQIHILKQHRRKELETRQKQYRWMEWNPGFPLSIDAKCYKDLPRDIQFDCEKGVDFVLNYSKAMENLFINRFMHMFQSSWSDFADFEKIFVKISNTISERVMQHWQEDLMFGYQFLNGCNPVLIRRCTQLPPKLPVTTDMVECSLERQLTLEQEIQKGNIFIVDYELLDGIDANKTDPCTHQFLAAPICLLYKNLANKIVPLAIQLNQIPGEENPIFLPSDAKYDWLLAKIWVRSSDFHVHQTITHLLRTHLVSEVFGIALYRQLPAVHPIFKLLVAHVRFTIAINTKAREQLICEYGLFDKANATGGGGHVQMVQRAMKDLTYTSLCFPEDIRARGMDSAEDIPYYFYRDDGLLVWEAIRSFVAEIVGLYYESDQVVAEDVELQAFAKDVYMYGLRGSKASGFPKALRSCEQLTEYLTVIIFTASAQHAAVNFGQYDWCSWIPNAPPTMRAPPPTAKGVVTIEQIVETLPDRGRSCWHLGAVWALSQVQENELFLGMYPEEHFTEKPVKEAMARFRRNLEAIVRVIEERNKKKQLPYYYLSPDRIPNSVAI
From the text: 4b. In vitro determination of inhibitory activity on 5-lipoxygenase concentrated from peritoneal PMNs of the guinea-pig.
An inhibition of 5-lipoxygenase can be caused by direct inhibitory action of the substances on the enzyme and/or by interference with the activation of the enzyme. While in test 4a the 5-lipoxygenase inhibition of the substances was investigated in rat PMN cells, in test 4b the inhibitory activity of the substances was investigated on free 5-LO concentrated from guinea-pig PMN cells according to the method of D. Aharony et al., J. Biol. Chem. 261 (1986), 11512-11519 (1986).
The 5-LO was concentrated in a known manner from PMNs of male Dunkin-Hartley guinea-pigs (body weight 400 to 500 g) as follows. 10 ml of a solution containing 27.9 g/l of sodium thioglycolate were injected i.p. into the animals in order to induce the PMN invasion as a result of this inflammatory stimulus. After 22 hours, the animals were sacrificed by lethal ether anaesthesia. 70 ml of HBSS without Ca^++ and Mg^++ ions and containing 0.2% by weight of sodium citrate were then injected into the abdominal cavity. The cell suspension (>80% of the cells are PMNs) was withdrawn from the abdominal cavity, filtered through a cheese-making filter cloth, and washed twice with a 50 mM potassium phosphate buffer solution of pH 7.4, which contained 0.5 mM ethylenediaminetetraacetic acid, 1% by weight of gelatine and 20 μM indomethacin. The cells were resuspended, and the PMN suspension containing 10^8 cells/ml was homogenized three times for 15 seconds each in an ice-bath in a homogenizer of the Labsonic™ type set at high speed. The resulting suspension was centrifuged at 4° C. (15 minutes at 10,000×g). The supernatant liquid was used for the investigation as a solution of the free 5-LO enzyme.
The experiments were carried out at 37° C. for 7 minutes using 0.625 ml samples of this enzyme solution. For the experiments, the enzyme solution (=equivalent of 2.5×10^7 cells), 0.5 mM glutathione, 1 mM ATP and 0.3 mM calcium chloride were added to test tubes. […] of the test substance were added to the samples dissolved in sufficient dimethylformamide such that the dimethylformamide concentration in each test tube is 0.5%. Only dimethylformamide was added to the control samples. After 2 minutes, the formation of 5-(S)-hydroxy-6,8,11,14-eicosatetraenoic acid (=[…]) was initiated by addition 10 μM arachidonic acid. After 5 minutes, the reaction was terminated by addition of 0.625 ml of a mixture of methyl acetate/methanol/0.2 m citric acid 15:2:0.5 v/v/v. 5-HETE was extracted twice using this solvent mixture. The 5-HETE-containing phases were combined and evaporated to dryness under a nitrogen atmosphere. The residue was taken up in a mixture of methanol/water/acetic acid 75:21:0.02 v/v/v having a pH of 5.7, and the solution was investigated for its content of 5-HETE by means of reverse phase HPLC. To accomplish this, a […] silanized silica gel column (Hichrom® ODS2, 250×4.6 mm) was employed as the adsorbent and a mixture of methanol/water/acetic acid 75:21:0.02 adjusted to pH 5.7 with ammonia and having a flow rate of 1 ml/min was used as the eluent. 5-HETE, which was eluted as a single peak after 20 minutes, was identified by comparison with standard solutions eluted at the same time and determined using a UV light detector at a wavelength of 235 nm. Quantitative determination was carried out by comparison of the peak area obtained with peak areas occurring in the calibrated standard solutions. From the 5-HETE contents of the samples determined, the inhibitory activity of the test substances was calculated in % inhibition of 5-HETE synthesis in comparison to the control samples containing no test substance.

With `Cc1ccnc(N2CCN(CCC3Cn4c(-c5ccc(O)cc5)c(C)c5c(F)ccc(c54)O3)CC2)c1` (centres unmarked) [Example 22] the inhibition at 10 µM [1] was 84% and the inhibition at 10 µM (5-lipoxygenase) was 97%.

With `Cc1ccnc(N2CCN(C(=O)CCC3Cn4c(-c5cc(C)c(O)c(C)c5)c(C)c5c(F)ccc(c54)O3)CC2)c1` (centres unmarked) [Example 54] the inhibition at 10 µM [1] was 65% and the inhibition at 10 µM (5-lipoxygenase) was 63%.

For `Cc1ccnc(N2CCN(CCCCC3Cn4c(-c5cc(C)c(O)c(C)c5)c(C)c5cccc(c54)O3)CC2)c1` (centres unmarked) [Example 18], the inhibition at 10 µM [1] was 78% and the inhibition at 10 µM (5-lipoxygenase) was 100%.

`Cc1ccnc(N2CCN(C(=O)CC3Cn4c(-c5ccc(O)cc5)c(C)c5cccc(c54)O3)CC2)c1` (centres unmarked) [Example 17] gave an inhibition at 10 µM [1] of 99% and an inhibition at 10 µM (5-lipoxygenase) of 100%.
